# In patent US10716827B2 (priority 2015, dated 2020):
# Target: GLP-1R (Homo sapiens, UniProt P43220)
# Sequence (P43220 24-463, species assumed): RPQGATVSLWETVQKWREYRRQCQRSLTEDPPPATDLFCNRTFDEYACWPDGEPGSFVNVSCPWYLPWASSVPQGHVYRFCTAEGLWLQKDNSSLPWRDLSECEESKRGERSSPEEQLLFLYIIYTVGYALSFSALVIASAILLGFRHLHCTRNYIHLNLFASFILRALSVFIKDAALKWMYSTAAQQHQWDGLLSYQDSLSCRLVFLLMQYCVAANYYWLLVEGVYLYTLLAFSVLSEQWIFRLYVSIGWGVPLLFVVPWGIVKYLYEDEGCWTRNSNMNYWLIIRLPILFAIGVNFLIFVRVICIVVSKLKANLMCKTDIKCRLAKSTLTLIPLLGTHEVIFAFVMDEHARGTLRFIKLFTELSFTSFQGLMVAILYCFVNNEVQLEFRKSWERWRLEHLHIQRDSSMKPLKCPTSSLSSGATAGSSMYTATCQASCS
substance,measurement,setting,value
HGEGTFTSDLS(Kazido)QMEEEAVRLFIENWLKNGGPSSGAPSSGAPPPS [compound 1],% Change in FRET at 100 nM,"100 nM, undigested",−12 ± 0.01%
same,potency compared to unmodified Ex-4,azido modification at K12,no significant reduction in potency
